The nature of assay [1]: Cell growth assay (WST-8) (Compounds B1-B278). The class given is cell-based. To be noted: T47D cell line, WST-8, 4 days, read-out: Cell Growth Inhibition in T47D cell line IC50. The protocol: Cell Growth Assay. The cells are seeded at certain concentration (e.g., at 1500/well) in multi-well plates overnight. Cells are subsequently treated with the compounds. A certain period of time (e.g., 4 days) after the compound treatment, 10% WST-8 reagent is added to the culture medium and incubate under certain condiction (e.g., in a CO2 incubator at 37° C. for 2.5 hours). The absorbance is measured on each sample using a microplate reader at certain wavelength (e.g., 450 nm). The relative absorbance is calculated against the vehicle control from three individually repeats.
Cell Growth Assay. The cells were seeded at 1500/well in 96 well plates overnight. One day after the seeding, they were treated with indicated doses of compounds respectively. 4 days after the compound treatment, 10% WST-8 reagent was added to the culture medium and incubate in a CO2 incubator at 37° C. for 2.5 hours. Before reading, the plate was mixed gently on an orbital shaker for one minute to ensure homogeneous distribution of color. The absorbance was measured of each sample using a microplate reader at a wavelength of 450 nm. The relative absorbance was calculated against the vehicle control from three individually repeats.

A further assay deals with ER (Homo sapiens (Human), UniProt P03372). In words: In-cell western blot analysis of relative ER percentage (Compounds B1-B278). As to conditions: ER degradation, 16 hours, read-out: ICW DC50. Format: cell-based. The protocol: In-cell western blot analysis. Cells are seeded in multi-well plates (e.g., at 40,000 or 10,000 cells/well). Diluted compounds at certain concentration are added (final 0.5% DMSO) and cells are incubated for […] (e.g., 16 hours). Formaldehyde (e.g., PBS:FA=9:1) is added and followed by washing with PBS. The cells are blocked with Licor blocking buffer (Li-Cor). The relative ER percentage in treated cells are obtained by comparing the values of treated wells to those in untreated and DMSO-treated wells as 100%.
Chain of ER (P03372 whole entry): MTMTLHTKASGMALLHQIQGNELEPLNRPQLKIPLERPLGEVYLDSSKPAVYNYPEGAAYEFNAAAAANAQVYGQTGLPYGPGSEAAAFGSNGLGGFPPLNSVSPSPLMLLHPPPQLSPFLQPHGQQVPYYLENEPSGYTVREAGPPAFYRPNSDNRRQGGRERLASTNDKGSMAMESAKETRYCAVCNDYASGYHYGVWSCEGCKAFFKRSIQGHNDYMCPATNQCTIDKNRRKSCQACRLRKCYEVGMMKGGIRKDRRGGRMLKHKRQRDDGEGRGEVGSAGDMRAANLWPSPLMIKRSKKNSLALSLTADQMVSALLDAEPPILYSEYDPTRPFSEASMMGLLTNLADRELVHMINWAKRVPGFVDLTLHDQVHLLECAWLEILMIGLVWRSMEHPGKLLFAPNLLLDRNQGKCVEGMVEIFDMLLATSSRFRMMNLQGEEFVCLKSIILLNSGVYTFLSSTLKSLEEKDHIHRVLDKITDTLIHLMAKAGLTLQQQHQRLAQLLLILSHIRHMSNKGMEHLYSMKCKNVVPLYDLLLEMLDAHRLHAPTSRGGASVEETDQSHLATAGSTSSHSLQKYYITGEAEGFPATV
In-cell western blot analysis. a. seed cells in black-sided/clear bottom 96- or 384-well plates at 40,000 or 10,000 cells/well, overnight; b. add diluted compounds (final 0.5% DMSO), 16 hours. 16 h later, remove medium, add 100 μL or 25 μL of 3.7-4.0% formaldehyde (PBS:FA=9:1), RT 20 min, no shaking; c. wash with PBS, and permeabilized with 100 μL or 25 μL/well of 1×PBS+0.1% Triton X-100 10 minutes; d. block with 100 μL or 25 μL Licor blocking buffer (Li-Cor), RT 1 h, moderate shaking; d. Add 100 μL or 25 μL of anti-ER (cs-8644, 1:500-1,000)+GAPDH(Millipore MAB374, 1:1000) in Block+0.05% Tween 20. RT 2 h, gentle shaking. Negative control: cells plus secondary antibodies (no primary antibodies); e. wash×4 with PBS +0.05-0.1% Tween 20, gentel shaking; f. anti-rabbit-680 and anti-mouse-800 (both 1:1000 in LiCor block +0.05% Tween20, RT 1 h, gentle shaking, no light. LI-COR: 0.2% to reduce background; g. wash×4 with PBS+0.05% Tween 20, gental shaking; h. add 100 μL or 25 μL of PBS to each well and read on CLX plate reader. The relative ER percentage in treated cells were obtained by comparing the values of treated wells to those in untreated and DMSO-treated wells as 100%.

The text below walks through data of patent US20260007681A1, “INDOLE DERIVATIVES AS ESTROGEN RECEPTOR DEGRADERS” (REGENTS OF THE UNIVERSITY OF MICHIGAN, priority 2022, published 2026).

Read-outs that look alike come from different tables or passages of the source.

As to `C[C@@H]1Cc2c([nH]c3ccccc23)[C@@H](c2cnc(N3CCC(CN4CCN5c6ccc7c(c6OC[C@H]5C4)CN(C4CCC(=O)NC4=O)C7=O)CC3)nc2)N1CC(F)F` (mixture of isomers) [Compound B255, 3-((RS)-7-((1-(5-((1R,3R)-2-(2,2-difluoroethyl)-3-methyl-2,3,4,9-tetrahydro-1H-pyrido[3,4-b]indol-1-yl)pyrimidin-2-yl)piperidin-4-yl)methyl)-1-oxo-1,3,5,5a,6,7,8,9-octahydro-2H-pyrazino[1′,2′:4,5][1,4]oxazino[2,3-e]isoindol-2-yl)piperidine-2,6-dione], the IC50 in assay [1] was less than 1 nM. The DC50 on ER is greater than 100 nM.

`C[C@@H]1Cc2c([nH]c3ccccc23)[C@@H](c2cnc(N3CCC(CN4CCN5c6ccc7c(c6OC[C@H]5C4)CN(C4CCC(=O)NC4=O)C7=O)CC3)nc2)N1CC(C)(C)F` (mixture of isomers) [Compound B256, 3-((RS)-7-((1-(5-((1R,3R)-2-(2-fluoro-2-methylpropyl)-3-methyl-2,3,4,9-tetrahydro-1H-pyrido[3,4-b]indol-1-yl)pyrimidin-2-yl)piperidin-4-yl)methyl)-1-oxo-1,3,5,5a,6,7,8,9-octahydro-2H-pyrazino[1′,2′:4,5][1,4]oxazino[2,3-e]isoindol-2-yl)piperidine-2,6-dione]: in assay [1] (96 h), the IC50 is less than 1 nM. For the same compound, the DC50 at ER was greater than 100 nM.

As for `C[C@@H]1Cc2c([nH]c3ccccc23)[C@@H](c2c(F)cc(N3CCC(CN4CCN5c6ccc7c(c6OC[C@H]5C4)CN(C4CCC(=O)NC4=O)C7=O)CC3)cc2F)N1CC(C)(C)F` (mixture of isomers) [Compound B257, 3-((RS)-7-((1-(3,5-difluoro-4-((1R,3R)-2-(2-fluoro-2-methylpropyl)-3-methyl-2,3,4,9-tetrahydro-1H-pyrido[3,4-b]indol-1-yl)phenyl)piperidin-4-yl)methyl)-1-oxo-1,3,5,5a,6,7,8,9-octahydro-2H-pyrazino[1′,2′:4,5][1,4]oxazino[2,3-e]isoindol-2-yl)piperidine-2,6-dione], in assay [1] (96 h), the IC50 was less than 1 nM. Besides, at ER, the DC50 lay within 10 to 100 nM.

`C[C@@H]1Cc2c([nH]c3ccccc23)[C@@H](c2c(F)cc(N3CCC(CN4CCN5c6ccc7c(c6OC[C@H]5C4)CN(C4CCC(=O)NC4=O)C7=O)CC3)cc2F)N1CC(C)(C)F` (mixture of isomers) [Compound B259, 3-((RS)-7-((1-(3,5-difluoro-4-((1R,3R)-2-(2-fluoro-2-methylpropyl)-3-methyl-2,3,4,9-tetrahydro-1H-pyrido[3,4-b]indol-1-yl)phenyl)piperidin-4-yl)methyl)-1-oxo-1,3,5,5a,6,7,8,9-octahydro-2H-pyrazino[1′,2′:4,5][1,4]oxazino[2,3-e]isoindol-2-yl)piperidine-2,6-dione]: the IC50 in assay [1] was less than 1 nM. The DC50 on ER is greater than 100 nM.

In the case of `C[C@@H]1Cc2c([nH]c3ccccc23)[C@@H](c2cnc(N3CCC(OCCN4CCN5c6cc7c(cc6OC[C@@H]5C4)C(=O)N([C@H]4CCC(=O)NC4=O)C7)CC3)nc2)N1CC(F)F` [Compound 1B24, (S)-3-((S)-3-(2-((1-(5-((1R,3R)-2-(2,2-difluoroethyl)-3-methyl-2,3,4,9-tetrahydro-1H-pyrido[3,4-b]indol-1-yl)pyrimidin-2-yl)piperidin-4-yl)oxy)ethyl)-8-oxo-1,2,3,4,4a,5,8,10-octahydro-9H-pyrazino[1,2′:4,5][1,4]oxazino[2,3-f]isoindol-9-yl)piperidine-2,6-dione], the IC50 in assay [1] (96 h) was 1 to 10 nM. Further, on ER, the DC50 fell in the range of 10 to 100 nM.

In the case of `C[C@@H]1Cc2c([nH]c3ccccc23)[C@@H](c2c(F)cc(-c3ncc(C(=O)N4CCN5c6cc7c(cc6OC[C@@H]5C4)C(=O)N([C@H]4CCC(=O)NC4=O)C7)cn3)cc2F)N1CC(F)F` [Compound B117, (S)-3-((S)-3-(2-(4-((1R,3R)-2-(2,2-difluoroethyl)-3-methyl-2,3,4,9-tetrahydro-1H-pyrido[3,4-b]indol-1-yl)-3,5-difluorophenyl)pyrimidine-5-carbonyl)-8-oxo-1,2,3,4,4a,5,8,10-octahydro-9H-pyrazino[1′,2′:4,5][1,4]oxazino[2,3-f]isoindol-9-yl)piperidine-2,6-dione], in assay [1] (96 h), the IC50 fell in the range of 1 to 10 nM. For the same compound, the DC50 at ER was in the range of 10 to 100 nM.

Turning to `C[C@@H]1Cc2c([nH]c3ccccc23)[C@@H](c2c(F)cc(NC3CN(C(=O)CN4CCN5c6cc7c(cc6OC[C@@H]5C4)C(=O)N(C4CCC(=O)NC4=O)C7)C3)cc2F)N1CC(F)(F)CO` (stereo partly drawn) [Compound B118, 3-((S)-3-(2-(3-((4-((1R,3R)-2-(2,2-difluoro-3-hydroxypropyl)-3-methyl-2,3,4,9-tetrahydro-1H-pyrido[3,4-b]indol-1-yl)-3,5-difluorophenyl)amino)azetidin-1-yl)-2-oxoethyl)-8-oxo-1,2,3,4,4a,5,8,10-octahydro-9H-pyrazino[1′,2′:4,5][1,4]oxazino[2,3-f]isoindol-9-yl)piperidine-2,6-dione], the IC50 in assay [1] (96 h) lay in the range of 1 to 10 nM. At ER, the DC50 was in the range of 10 to 100 nM.

With `C[C@@H]1Cc2c([nH]c3ccccc23)[C@@H](c2c(F)cc(C3CCN(C(=O)CN4CCN5c6cc7c(cc6OC[C@@H]5C4)C(=O)N(C4CCC(=O)NC4=O)C7)CC3)cc2F)N1CC(F)F` (stereo partly drawn) [Compound B119, 3-((S)-3-(2-(4-(4-((1R,3R)-2-(2,2-difluoroethyl)-3-methyl-2,3,4,9-tetrahydro-1H-pyrido[3,4-b]indol-1-yl)-3,5-difluorophenyl)piperidin-1-yl)-2-oxoethyl)-8-oxo-1,2,3,4,4a,5,8,10-octahydro-9H-pyrazino[1′,2′:4,5][1,4]oxazino[2,3-f]isoindol-9-yl)piperidine-2,6-dione], in assay [1] (96 h), the IC50 is less than 1 nM. Further, on ER, the DC50 lay in the range of 10 to 100 nM.

`C[C@@H]1Cc2c([nH]c3ccccc23)[C@@H](c2cnc(N3CC4(CCC(CN5CCN6c7cc8c(cc7OC[C@@H]6C5)C(=O)N(C5CCC(=O)NC5=O)C8)CC4)C3)nc2)N1CC(F)F` (stereo partly drawn) [Compound B120, 3-((S)-3-((2-(5-((1R,3R)-2-(2,2-difluoroethyl)-3-methyl-2,3,4,9-tetrahydro-1H-pyrido[3,4-b]indol-1-yl)pyrimidin-2-yl)-2-azaspiro[3.5]nonan-7-yl)methyl)-8-oxo-1,2,3,4,4a,5,8,10-octahydro-9H-pyrazino[1′,2′:4,5][1,4]oxazino[2,3-f]isoindol-9-yl)piperidine-2,6-dione]: the IC50 in assay [1] (96 h) lay in the range of 1 to 10 nM. The DC50 on ER lay in the range of 10 to 100 nM.

For the compound `C[C@@H]1Cc2c([nH]c3ccccc23)[C@@H](c2cnc(N3CCC(CCN4CCN5c6cc7c(cc6OC[C@@H]5C4)C(=O)N(C4CCC(=O)NC4=O)C7)CC3)nc2)N1CC(F)F` (stereo partly drawn) [Compound B121, 3-((S)-3-(2-(1-(5-((1R,3R)-2-(2,2-difluoroethyl)-3-methyl-2,3,4,9-tetrahydro-1H-pyrido[3,4-b]indol-1-yl)pyrimidin-2-yl)piperidin-4-yl)ethyl)-8-oxo-1,2,3,4,4a,5,8,10-octahydro-9H-pyrazino[1′,2′:4,5][1,4]oxazino[2,3-f]isoindol-9-yl)piperidine-2,6-dione], the IC50 in assay [1] (96 h) was in the range of 1 to 10 nM. The DC50 on ER is less than 10 nM.

Consider `C[C@@H]1Cc2c([nH]c3ccccc23)[C@@H](c2cnc(N3CC[C@H](CCN4CCN5c6cc7c(cc6OC[C@@H]5C4)C(=O)N(C4CCC(=O)NC4=O)C7)C3)nc2)N1CC(F)F` (stereo partly drawn) [Compound B122, 3-((S)-3-(2-((S)-1-(5-((1R,3R)-2-(2,2-difluoroethyl)-3-methyl-2,3,4,9-tetrahydro-1H-pyrido[3,4-b]indol-1-yl)pyrimidin-2-yl)pyrrolidin-3-yl)ethyl)-8-oxo-1,2,3,4,4a,5,8,10-octahydro-9H-pyrazino[1′,2′:4,5][1,4]oxazino[2,3-f]isoindol-9-yl)piperidine-2,6-dione], for which the IC50 in assay [1] (96 h) fell in the range of 1 to 10 nM. Also, the DC50 at ER was in the range of 10 to 100 nM.

The term IC50 denotes the point on the concentration scale where inhibition reaches its midpoint. As a reminder, the DC50 is the concentration at which degradation of the target reaches its halfway point.
